Experiments:
[1] = tested on: intact retinas from P12 wild type mice; experiment: P12 mouse retinal explant culture, qPCR for rod gene expression; assay type: cell-based; settings: P12 explants, 1 μM, 2 days, vs DMSO
From the text: To identify functional Nr2e3 antagonists, compounds were cheminformatically searched and structural analogs of a putative Nr2e3 interacting compound with unknown function were collected. See FIGS. 2 and 4 for the structures of the compounds. The collected compounds were then screened in a physiologically relevant primary culture assay using intact retinas from postnatal day 12-13 (P12-13) C57BL/6 mice for suppression of Rho expression (See FIG. 6A). After a 2 day culture period with media containing DMSO or compounds at 1 μM, the retinas were collected and assessed Rho expression by qPCR. Rho was chosen because it is a well-described target of Nr2e3 in rod photoreceptors. […] This analysis also provided an initial structure-activity relationship.
Nr2e3 loss-of-function mutations lead to a reduction in rod gene expression. To determine whether the same was true for PR1 (FIG. 6D), explant cultures of P12 retina as above were treated and assayed for other rod photoreceptor genes. After 2 days in culture, PR1 decreased the expression of the rod specific genes Nrl, Nr2e3, Rho, Gnat1, and Pde6b compared to DMSO treatment by qPCR analysis (FIG. 6C). […] To determine the dose-response relationship between PR1 concentration and expression of rod genes, retinas from P12 mice were explanted in media containing DMSO or 0.1, 1, 5, or 10 μM PR1 for 2-3 days and assayed Nrl, Nr2e3, and Rho expression by qPCR. […] PR1 was tested to determine whether it could cause a reduction in Rho expression in human rod photoreceptors as well. Pairs of 113 day post-conception retinas were explanted in media with DMSO or 10 μM PR1 for 7 or 23 days. After 7 and 23 days in culture, PR1 decreased the expression of Rho compared to DMSO treatment (FIG. 6F), similar to the effect observed in mouse retinal explants.
Intact retinas without RPE from mice of various strains and ages as indicated were explanted on 0.4 μm pore tissue culture inserts (Millipore) as previously described (Ueki, Y., et al., P53 is required for the developmental restriction in Muller glial proliferation in mouse retina. Glia, 2012. 60(10): p. 1579-89; Ueki, Y., et al., A transient wave of BMP signaling in the retina is necessary for Muller glial differentiation. Development, 2015. 142(3): p. 533-43. Full media (DMEM/F12 (1:1) containing 1% dialyzed FBS, 1% Pen Strep, 0.3% D+ glucose, 2% B27, and 1% N2) changes were performed every other day and small molecules were used at 0.1 μM to 10 μM. Where indicated, EdU (Invitrogen) was included in the media at 5 μg/mL and visualized by staining with the Click-iT EdU Alexa Fluor kit (Thermo Fisher Scientific). For human retinal explant cultures, tissue from 113 day post-conception fetuses was obtained from the University of Washington Birth Defects Laboratory and explanted on 0.4 μm pore tissue culture inserts (Millipore) in media (Neurobasal A with 1% FBS, 1% Pen Strep, 1% N2, 1% B27) containing 10 μM Photoregulin1 or an equal volume of DMSO.
RNA was isolated using TRIzol (Invitrogen) and cDNA was synthesized using the iScript cDNA synthesis kit (Bio-Rad) following an intervening DNase treatment with RQ1 RNase-free DNase (Promega). SSO Fast (Bio-Rad) was used for quantitative real-time PCR. For analysis, values were normalized to Gapdh and ΔΔCt between DMSO and compound-treated samples was expressed as percent of DMSO treated controls (100*2^ΔΔCt). Two-way Student's t-tests were performed on ΔCt values.

Thrb (Trβ2) = experiment: Cone gene expression, Thrb (FIG. 5)

Row | SMILES | relative rhodopsin (Rho) expression [1] | cone gene expression, Thrb (Trβ2) (Thrb (Trβ2))
1 | Cc1cccc(C(=O)NCC(=O)Nc2ncc(C)s2)c1 [CA9513] | reducing rhodopsin expression | 
2 | Cc1cc(C)cc(NC(=O)CCc2nc3sc4c(c3c(=O)[nH]2)CCC4)c1 [CA8801] | reducing rhodopsin expression | 
3 | Cc1cccc(C(=O)NC(C(=O)Nc2ncc(C)s2)C(C)C)c1 (stereo not shown) [CA95] | reducing rhodopsin expression | increase

Reference: patent US10849904B2, “Methods for treatment of retinal disease by photoreceptor gene expression modulation” (University of Washington, priority 2015, dated 2020)
